Laboratory results published in patent US10202332B2, “Method for preparing 2-amino-N-(2,2,2-trifluoroethyl) acetamide” (E. I. du Pont de Nemours and Company, priority 2010, dated 2019).

Test: Stability comparison for free base and salts: weight gain or loss on exposure to air in the laboratory
Format: physicochemical
Conditions: for hygroscopicity (in words): handling, exposure to air
Procedure: To further characterize the stability of the free amine and salts of 2-amino-N-(2,2,2-trifluoroethyl)acetamide the following experiments were performed. Samples of the free amine and salts were exposed to air in the laboratory for a period of time. Weight […] or loss compared to the original sample was determined

| SMILES | sensitivity to air (in words) | % Weight gain (loss) (3 days in ambient atmosphere, parentheses = loss) [%] | weight gain upon exposure to the ambient atmosphere (in words) | hygroscopicity (in words) |
| --- | --- | --- | --- | --- |
| NCC(=O)NCC(F)(F)F [Free base, 2-amino-N-(2,2,2-trifluoroethyl)acetamide] | sensitive to air | 4.65 | showed weight gain | hygroscopic |
| Cl.NCC(=O)NCC(F)(F)F [Hydrochloride, 2-amino-N-(2,2,2-trifluoroethyl)acetamide hydrochloride] |  |  | did not | not hygroscopic |
